The structures appear in SMILES notation. Active and inactive are the calls of the source.

The subject of one test is Vero. The test can be described thus: cells. The class given is functional. To be noted: Chlorocebus sabaeus.
Test [1] in a line: HeLa cell cytotoxicity, dose response, cytotoxicity control for MgcRacGAP inhibitor project (AID 624300). The class given is functional.
The target of test [2] is T1, Rac GTPase-activating protein 1 (Homo sapiens, UniProt Q9H0H5).
T1 sequence (Q9H0H5 whole entry): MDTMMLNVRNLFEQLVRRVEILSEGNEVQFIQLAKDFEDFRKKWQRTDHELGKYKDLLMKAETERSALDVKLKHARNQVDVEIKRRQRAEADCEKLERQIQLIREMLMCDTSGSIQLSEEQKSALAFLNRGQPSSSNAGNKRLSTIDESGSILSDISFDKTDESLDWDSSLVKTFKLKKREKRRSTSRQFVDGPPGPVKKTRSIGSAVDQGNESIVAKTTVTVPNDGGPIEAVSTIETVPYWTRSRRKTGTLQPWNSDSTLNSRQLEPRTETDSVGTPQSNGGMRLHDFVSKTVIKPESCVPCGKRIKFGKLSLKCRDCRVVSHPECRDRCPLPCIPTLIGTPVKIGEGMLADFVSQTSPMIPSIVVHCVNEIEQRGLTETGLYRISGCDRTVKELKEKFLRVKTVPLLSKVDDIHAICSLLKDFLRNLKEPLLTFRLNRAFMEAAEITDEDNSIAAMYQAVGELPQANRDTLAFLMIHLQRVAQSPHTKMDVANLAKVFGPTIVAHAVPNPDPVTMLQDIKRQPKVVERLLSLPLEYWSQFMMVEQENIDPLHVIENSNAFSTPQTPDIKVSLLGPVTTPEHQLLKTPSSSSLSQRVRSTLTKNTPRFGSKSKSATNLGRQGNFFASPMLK
The test can be described thus: MgcRacGAP GTPase-activating activity inhibitors, confirmation, biochemical, ADP Hunter fluorescence, primary and confirmatory (AID 624330). The class given is functional.

Test [3] concerns BJ. The test can be described thus: cytotoxicity toward BJ-TERT fibroblasts, dose response, cell-based, RAS-independent, luminescence (AID 1933). In kind it is functional. As to conditions: Homo sapiens.
Test [4] has as its system BJ. The test can be described thus: cells. In kind it is functional, cell-based. As to conditions: Homo sapiens.
Test [5] has as its system BJ. The test can be described thus: cytotoxicity toward BJ-TERT-LT-ST fibroblasts, dose response, cell-based, RAS-independent, luminescence (AID 1935).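 Also: BJ fibroblasts immortalized with TERT plus LT and ST oncogenes.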 The class given is functional. As to conditions: Homo sapiens.
The nature of test [6]: cytotoxicity toward DRD oncogenic fibroblasts, dose response, cell-based, non-viral oncogenic, luminescence (AID 1934). In kind it is functional. As to conditions: Homo sapiens.
Another test has as its target T2, Leucine aminopeptidase (Plasmodium falciparum 3D7, UniProt Q8IL11).
T2 sequence (Q8IL11 whole entry): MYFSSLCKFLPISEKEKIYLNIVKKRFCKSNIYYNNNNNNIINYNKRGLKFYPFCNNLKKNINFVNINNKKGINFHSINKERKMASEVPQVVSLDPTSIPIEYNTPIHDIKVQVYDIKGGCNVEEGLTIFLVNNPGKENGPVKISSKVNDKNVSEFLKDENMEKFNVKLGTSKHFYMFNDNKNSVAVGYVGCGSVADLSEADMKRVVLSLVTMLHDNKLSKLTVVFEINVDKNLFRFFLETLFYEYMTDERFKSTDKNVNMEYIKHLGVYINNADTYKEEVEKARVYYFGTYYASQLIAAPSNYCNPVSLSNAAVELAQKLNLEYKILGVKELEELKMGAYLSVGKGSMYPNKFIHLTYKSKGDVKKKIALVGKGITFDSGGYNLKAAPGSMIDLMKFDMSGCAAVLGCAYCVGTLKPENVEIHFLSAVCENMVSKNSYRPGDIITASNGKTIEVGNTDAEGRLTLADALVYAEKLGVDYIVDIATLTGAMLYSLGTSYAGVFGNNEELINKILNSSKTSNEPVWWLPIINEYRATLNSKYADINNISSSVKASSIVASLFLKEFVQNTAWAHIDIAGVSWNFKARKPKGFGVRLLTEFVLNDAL
The test can be described thus: P. falciparum M17LAP inhibitors, primary screen, biochemical, fluorogenic H-Leu-NHMec substrate, 1536-well (AID 1619). In kind it is functional.

In test [7] the target is T3, RNA-binding protein pos-1 (Caenorhabditis elegans, UniProt G5EF15).
T3 sequence (G5EF15 whole entry): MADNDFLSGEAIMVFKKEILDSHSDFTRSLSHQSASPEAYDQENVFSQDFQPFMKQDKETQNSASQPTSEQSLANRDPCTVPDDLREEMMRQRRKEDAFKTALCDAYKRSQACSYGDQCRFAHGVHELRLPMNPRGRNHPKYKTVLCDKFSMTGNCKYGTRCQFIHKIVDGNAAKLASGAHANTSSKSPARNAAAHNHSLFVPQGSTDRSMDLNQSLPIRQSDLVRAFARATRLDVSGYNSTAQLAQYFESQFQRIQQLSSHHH
The test can be described thus: inhibitors of POS-1/mex-3 RNA binding, dose response, biochemical, fluorescence polarization (AID 1964).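 Also: purified POS-1 fused to maltose binding protein made in E. coli; potency of compounds blocking POS-1 binding to fluorescent RNA.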 In general terms: Polarisation of emitted light reports the rotation of a fluorescent probe.

Test [8] deals with T4, Zinc finger protein mex-5 (Caenorhabditis elegans, UniProt Q9XUB2).
T4 sequence (Q9XUB2 whole entry): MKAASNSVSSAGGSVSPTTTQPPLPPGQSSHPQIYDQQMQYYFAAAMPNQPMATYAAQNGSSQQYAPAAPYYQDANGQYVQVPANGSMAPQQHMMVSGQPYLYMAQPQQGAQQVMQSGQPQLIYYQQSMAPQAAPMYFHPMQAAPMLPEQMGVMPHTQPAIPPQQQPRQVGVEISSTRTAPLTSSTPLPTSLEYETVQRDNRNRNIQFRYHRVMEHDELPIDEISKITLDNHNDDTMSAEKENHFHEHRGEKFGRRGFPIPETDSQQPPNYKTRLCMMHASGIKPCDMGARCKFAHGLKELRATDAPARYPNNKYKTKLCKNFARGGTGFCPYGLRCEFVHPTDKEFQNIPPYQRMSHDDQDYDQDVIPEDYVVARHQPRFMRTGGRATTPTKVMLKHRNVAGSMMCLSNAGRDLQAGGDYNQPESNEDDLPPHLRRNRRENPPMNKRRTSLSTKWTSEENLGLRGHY
The test can be described thus: MEX-5/TCR-2 RNA interaction inhibitors, dose response, biochemical, C. elegans, fluorescence polarization (AID 1960).

Another test has as its target Cytochrome P450 2C19 (Homo sapiens, UniProt P33261). The test can be described thus: Cytochrome panel assay with activity outcomes. Panel member name: p450-cyp2c19 Compounds with AC50 equal or less than 10 uM are considered active. The class given is functional. To be noted: read-out: AC50.
The target in another test is Cytochrome P450 3A4 (Homo sapiens, UniProt P08684).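 Also: CYP3A4 tested as one member of a cytochrome P450 panel screen.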
A short description of test [9]: inhibitors of firefly luciferase expression or activity, dose response, H4 neuroglioma cells, luminescence (AID 1990). The class given is functional, cell-based.
The nature of test [10]: Luminescence Cell-Based Dose Response HTS to Identify Inhibitors of 5'UTR Stem-Loop Driven Prion Protein mRNA Translation in H4 Neuroglioblastoma Cells. [Related pubchem assays: 1827 (Project Summary), 1813 (Primary HTS)]. In kind it is functional.
Test [11] is described as follows: inhibitors of SNCA 5'UTR-driven reporter translation, confirmation, H4 neuroglioma cells, luminescence (AID 1988). The class given is functional, cell-based.
In the next test the test system is INS1. The test can be described thus: beta cell apoptosis inhibitors, cytokine rescue, dose response, luminescence, retest (AID 449756).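 Also: cell death triggered by IL-1 beta plus TNF-alpha plus IFN-gamma mixture; protective hits raise ATP signal compared with cytokine alone wells.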 The class given is functional, cell-based. To be noted: Rattus norvegicus.
Test [12] has as its target T5, Heat shock factor protein 1 (Mus musculus, UniProt P38532).
T5 sequence (P38532 whole entry): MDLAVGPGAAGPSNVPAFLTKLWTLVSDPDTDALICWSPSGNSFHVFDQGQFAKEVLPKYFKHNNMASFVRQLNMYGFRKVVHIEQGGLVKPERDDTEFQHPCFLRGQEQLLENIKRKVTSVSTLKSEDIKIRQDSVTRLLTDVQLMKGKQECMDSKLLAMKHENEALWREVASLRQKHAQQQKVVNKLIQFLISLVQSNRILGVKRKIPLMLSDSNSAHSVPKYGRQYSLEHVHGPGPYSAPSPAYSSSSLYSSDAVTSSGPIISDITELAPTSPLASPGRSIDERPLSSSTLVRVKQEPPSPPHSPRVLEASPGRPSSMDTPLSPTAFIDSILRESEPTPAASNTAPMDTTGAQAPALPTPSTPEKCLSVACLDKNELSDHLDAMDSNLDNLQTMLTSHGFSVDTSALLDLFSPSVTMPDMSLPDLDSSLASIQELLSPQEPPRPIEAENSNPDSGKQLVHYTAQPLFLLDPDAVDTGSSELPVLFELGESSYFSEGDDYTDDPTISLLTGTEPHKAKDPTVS
The test can be described thus: inhibition of MG132-induced HSE-luciferase signal, confirmation, cell-based, NIH3T3, luminescence, dose retest (AID 2382).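 Also: NIH3T3 fibroblasts with HSF1-driven luciferase reporter stressed by proteasome inhibitor MG132; luminescence from HSF1-driven luciferase expression after 8 hours of MG132 stress.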 The class given is functional.

The subject of a further test is H9c2. The test can be described thus: cells. As to conditions: Rattus norvegicus, H9c2, Myocardium. In kind it is functional, cell-based.

Cytochrome P450 2C19, sequence (P33261 whole entry): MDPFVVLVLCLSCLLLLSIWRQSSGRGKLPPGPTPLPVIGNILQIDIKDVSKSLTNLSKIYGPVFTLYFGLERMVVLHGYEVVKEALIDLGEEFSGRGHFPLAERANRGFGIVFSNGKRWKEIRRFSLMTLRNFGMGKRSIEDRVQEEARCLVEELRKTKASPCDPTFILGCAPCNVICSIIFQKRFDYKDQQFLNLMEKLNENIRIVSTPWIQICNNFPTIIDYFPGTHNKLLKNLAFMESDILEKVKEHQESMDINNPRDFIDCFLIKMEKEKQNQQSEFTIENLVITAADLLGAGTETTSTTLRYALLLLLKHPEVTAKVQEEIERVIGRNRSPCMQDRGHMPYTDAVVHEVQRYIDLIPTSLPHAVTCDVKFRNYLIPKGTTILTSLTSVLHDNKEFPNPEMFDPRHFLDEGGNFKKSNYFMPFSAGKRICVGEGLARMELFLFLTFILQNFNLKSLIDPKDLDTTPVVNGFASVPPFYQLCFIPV
Cytochrome P450 3A4, sequence (P08684 whole entry): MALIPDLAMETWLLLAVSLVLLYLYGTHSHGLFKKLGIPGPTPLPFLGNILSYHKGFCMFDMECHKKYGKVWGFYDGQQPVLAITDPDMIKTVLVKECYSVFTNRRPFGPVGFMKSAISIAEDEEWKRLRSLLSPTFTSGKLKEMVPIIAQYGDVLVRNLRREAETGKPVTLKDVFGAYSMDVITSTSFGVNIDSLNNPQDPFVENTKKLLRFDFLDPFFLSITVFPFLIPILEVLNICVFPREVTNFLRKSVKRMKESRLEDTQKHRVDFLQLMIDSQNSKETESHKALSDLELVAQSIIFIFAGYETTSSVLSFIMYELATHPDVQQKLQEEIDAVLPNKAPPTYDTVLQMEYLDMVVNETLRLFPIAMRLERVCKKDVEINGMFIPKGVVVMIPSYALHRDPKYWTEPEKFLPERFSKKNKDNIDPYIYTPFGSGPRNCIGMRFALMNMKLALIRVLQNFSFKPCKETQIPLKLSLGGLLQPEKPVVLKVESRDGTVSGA

Regarding `COc1ccc(-n2cccc2/C=C/[N+](=O)[O-])cc1`, the CC50 (commonly the concentration that lowers cell viability or growth by half) in the test on Vero is 16 µM (active); in test [1] it was 42.3 µM (active). In addition, in test [2], the half-inhibitory concentration (IC50) (as a rule, the concentration needed to halve the response being measured) was 44 µM (active).

Take `C=CCNC(=O)c1ccc(NC(=O)C2=CSCCO2)cc1`: the concentration giving a half-maximal response (EC50) (in general, the concentration giving half of the maximal effect) in the test on BJ [3] is 24.8 µM (active); in the test with BJ [4], 111 µM (active); in the test on BJ [5], > 150 µM (not active); in [6] it was 60.9 µM (active).

As for `CC1=C(C)CC(C(=O)Nc2cccc(Cl)c2)C(C(=O)O)C1` (configuration not stated), on Leucine aminopeptidase, the half-maximal inhibitory concentration (IC50) is 2.38 µM (active).

Consider `COc1cc2c(cc1N=C(S)Nc1cccc(C(F)(F)F)c1)oc1ccccc12`, for which the CC50 in [1] is 100 µM (active). Also, the IC50 in test [2] was 225 µM (active).

As to `CCCCN1C(=O)/C(=C2/Sc3ccc(OC)cc3N2CC)SC1=S`, the 50% effective concentration (EC50) in [7] and in test [8] was > 300 µM (inconclusive) throughout.

For `CC1(C)CC(=O)C2=C(C1)OC(N)=C(C#N)C21C(=O)N2CCCc3cccc1c32` (configuration not stated), the EC50 in test [7] and in [8] was > 300 µM (not active) each time.

As to `Clc1ccc(Nc2nc[nH]n2)cc1`, the concentration for half-maximal inhibition (IC50) at Leucine aminopeptidase was 1.53 µM (active). Besides, the AC50 (in general, the midpoint of the concentration-response curve, whichever way the signal moves) at Cytochrome P450 2C19 was 14.1 µM (inconclusive); on Cytochrome P450 3A4, 31.6 µM (inconclusive).

`O=S(=O)(NNC(=S)Nc1ccc(S(=O)(=O)Nc2ncccn2)cc1)c1ccc(Br)cc1`: the results for the EC50 in test [7] and in test [8] were 2.97 µM (inconclusive) and 5.04 µM (active), respectively.

Regarding `Cc1ccc(-n2c(SCC(=O)OC(C)C)nnc2-c2ccco2)cc1`, the half-inhibitory concentration (IC50) on Leucine aminopeptidase is 31.2 µM (active).

As to `OCCCNc1ncnc2sc3c(c12)CCN(Cc1ccccc1)C3`, the concentration for a half-maximal effect (EC50) in test [7] is > 300 µM (not active); in test [8] it was 24.9 µM (active).

On to `COc1cccc(NC(=O)CSc2nc3c(oc4ccccc43)c(=O)[nH]2)c1`, for which the half-maximal inhibitory concentration (IC50) at Leucine aminopeptidase is < 1 µM (active).

For the compound `CCOc1cc(/C=C(\C#N)c2[nH]nc(N)c2C#N)ccc1O`, the EC50 in test [9] is 11.9 µM (active); in test [10] it was 14.6 µM (active); in test [11] it was > 120 µM (not active). The CC50 in [1] is 100 µM (active).

In the case of `Nc1ccccc1C(=O)NNc1c2ccccc2nc2ccccc12`, in test [1], the half-maximal cytotoxic concentration (CC50) is 100 µM (active). For the same compound, the half-maximal inhibitory concentration (IC50) in test [2] was 98.3 µM (active).

For `CCOC(=O)/C(C#N)=C\C=C1C=CN(C)C=C1`, the half-maximal inhibitory concentration (IC50) at Leucine aminopeptidase is 90 µM (active).

As to `COc1ccc(/C=C2\CCCC(C(=O)C(F)(F)F)=C2O)cc1OC`, the 50% effective concentration (EC50) in [7] is > 300 µM (not active); in test [8], 254 µM (inconclusive).

As for `C/C(=N\NC(=O)c1ccccc1NC(=O)c1ccc(Cl)cc1)c1ccncc1`, the concentration giving a half-maximal response (EC50) in the test on BJ [3] was 0.856 µM (inconclusive); in the test with BJ [4], 1.21 µM (inconclusive); in the test with BJ [5], 2.18 µM (inconclusive); in test [6], 1.12 µM (active). For the same compound, the AC50 with INS1 was 0.902 µM (active).

On to `COc1ccc(-c2csc(/C(C#N)=C(\O)CSc3nccn3C)n2)cc1OC`, for which the 50% effective concentration (EC50) in test [12] is recorded as > 195 µM (not active). Moreover, the IC50 in the test on H9c2 was > 79 µM (inactive).

Regarding `Cc1n[nH]c(O)c1/C=N/N1CCOCC1`, the EC50 in test [7] and in test [8] was > 300 µM (not active) in each case.

With `O=C(O)c1cccc(-c2ccc(/C=N/NC(=O)C3COc4ccccc4O3)o2)c1` (configuration not stated), the 50% inhibitory concentration (IC50) on Leucine aminopeptidase was 45.6 µM (active).
